{"source": "paper PMC8400343", "about": "“Synthesis and Evaluation of the Antidepressant-like Properties of HBK-10, a Novel 2-Methoxyphenylpiperazine Derivative Targeting the 5-HT1A and D2 Receptors” (Pharmaceuticals, 2021)", "key": {"[1]": {"biological_target": "T1, serotonin transporter (SERT) (Rattus norvegicus, UniProt P31652)", "T1 construct": "from tissue; host or cells: rat cortex", "T1 sequence (P31652 whole entry)": "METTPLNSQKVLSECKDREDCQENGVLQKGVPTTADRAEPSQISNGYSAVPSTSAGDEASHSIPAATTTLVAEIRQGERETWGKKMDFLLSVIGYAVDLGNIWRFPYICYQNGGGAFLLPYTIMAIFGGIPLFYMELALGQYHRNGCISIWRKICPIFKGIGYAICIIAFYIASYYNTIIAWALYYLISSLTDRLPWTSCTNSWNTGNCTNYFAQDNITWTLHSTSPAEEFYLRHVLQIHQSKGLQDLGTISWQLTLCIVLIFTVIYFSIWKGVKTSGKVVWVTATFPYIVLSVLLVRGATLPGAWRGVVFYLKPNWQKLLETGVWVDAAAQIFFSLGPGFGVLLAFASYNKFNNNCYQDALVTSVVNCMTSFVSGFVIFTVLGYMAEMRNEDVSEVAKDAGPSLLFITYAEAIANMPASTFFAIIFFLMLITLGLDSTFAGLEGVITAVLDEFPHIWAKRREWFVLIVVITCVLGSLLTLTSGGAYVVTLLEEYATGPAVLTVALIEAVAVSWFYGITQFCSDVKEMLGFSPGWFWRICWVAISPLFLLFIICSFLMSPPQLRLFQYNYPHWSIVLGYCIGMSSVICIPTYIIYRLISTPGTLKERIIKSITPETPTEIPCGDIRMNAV", "assay": "Radioligand binding, [3H]-citalopram, rat cortex tissue", "conditions": "mean ± SEM, read-out: Serotonergic pKi SERT (converted)", "protocol": "Radioligand binding was performed on membranes from CHO-K1 cells stably transfected with the human 5-HT1A, 5-HT2A, 5-HT6, or 5-HT7 receptors. […] Binding experiments were conducted in 96-well microplates, and the reaction mix included the solution of the test compound, radioligand, and diluted membranes or the tissue suspension.\n(§1) The reaction was terminated by rapid filtration through GF/B or GF/C filter mate presoaked with 0.3% polyethyleneimine for 30 min. Ten rapid washes with 200 µl 50 mM Tris buffer (4 °C, pH 7.4) were performed using an automated harvester system Harvester-96 MACH III FM (Tomtec). […] Radioactivity was counted in the MicroBeta2 scintillation counter (PerkinElmer) at approximately 30% efficiency. […] A single assay was performed with each compound concentrations in duplicate, and the whole assay was repeated in a three independent experiments."}, "dopaminergic D2 receptor": {"biological_target": "dopaminergic D2 receptor (Homo sapiens, UniProt P14416)", "sequence (P14416 whole entry)": "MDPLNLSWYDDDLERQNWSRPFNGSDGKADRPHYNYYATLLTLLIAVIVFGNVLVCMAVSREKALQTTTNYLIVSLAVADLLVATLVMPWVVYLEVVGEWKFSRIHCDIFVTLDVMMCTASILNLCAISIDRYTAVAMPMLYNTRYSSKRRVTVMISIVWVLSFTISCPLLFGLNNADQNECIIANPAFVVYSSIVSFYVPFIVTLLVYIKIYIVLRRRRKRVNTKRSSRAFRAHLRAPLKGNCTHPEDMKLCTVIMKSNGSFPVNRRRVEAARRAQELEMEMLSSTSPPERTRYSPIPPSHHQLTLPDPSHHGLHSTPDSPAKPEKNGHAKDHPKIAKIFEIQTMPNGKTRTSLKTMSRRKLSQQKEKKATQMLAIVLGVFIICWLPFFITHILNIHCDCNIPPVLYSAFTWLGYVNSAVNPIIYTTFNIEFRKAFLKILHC", "assay": "Radioligand binding, [3H]-methylspiperon, CHO-K1 cells", "conditions": "mean ± SEM, read-out: Dopaminergic pKi D2 (converted)", "protocol": "as §1"}, "mice [2]": {"tested_on": "mice", "assay": "Forced swim test in naive mice", "assay_type": "in vivo, mouse", "protocol": "(§2) Adult male Albino-Swiss mice (CD-1, 8 weeks old, 18–21g: Jagiellonian University Medical College, Krakow, Poland) were used in all experiments. Unless stated otherwise, the animals were kept in groups of 10 mice in standard cages (37 cm × 21 cm × 15 cm) at a room temperature (22 ± 2 °C), on a 12 h light/dark cycle (lights on 7:00) with ad libitum access to food and water. Mice were used only once in each test. Behavioral experiments were performed between 8 am and 4 pm and evaluated by a trained observer blind to the treatments. Mice were handled for 1 week before starting the experimental procedures. Animals were randomly allocated to the treatment using a computer-generated sequence, and researchers making measurements on the animals or analyzing the results were blind to the allocation. Moreover, experimental groups were distributed across multiple cages, and the location of the mouse cages in the room was changed following each day.\nHBK-10, WAY-100635 (Sigma, Darmstadt, Germany), p-chlorophenylalanine (pCPA; Sigma, Darmstadt, Germany), fluoxetine (Sigma, Darmstadt, Germany), reboxetine (Sigma, Darmstadt, Germany) and bupropion (Sigma, Darmstadt, Germany), were suspended in 1% Tween, and administered ip at a volume of 10 mL/kg 30 min before each behavioral test. The control groups received saline ip 30 min prior to testing. The doses of fluoxetine, reboxetine and bupropion as well as WAY-100635 and pCPA were based on our previous studies with 2-methoxyphenylpiperazine derivatives.\n(§3) The experiment was performed on mice according to the method described by Porsolt et al. and as previously described. Mice were placed individually in glass cylinders (height 25 cm, diameter 10 cm) filled with water at 24 ± 1 °C to a depth of 10 cm and left there for 6 min. Following a 2 min habituation period, total time spent immobile was recorded during the next 4 min. The animal was considered as immobile when it remained floating passively in the water, making only small movements to keep its head above the water. The experiments were video-recorded and scored using elevenmaze.com software by a trained observer blind to the treatments.\nTo assess the involvement of a serotonergic system in the antidepressant-like activity of tested compounds in the forced swim test, the mice were pretreated with pCPA (tryptophan hydroxylase inhibitor) according to the method previously described. […]. Twenty-four hours after the last pCPA administration, we injected mice with 1% Tween ip or tested compound. We performed the forced swim test 30 min after the administration.\nThe putative involvement of 5-HT1A receptors in the antidepressant-like effect of tested compound was studied using WAY-100635 (a selective 5-HT1A receptor antagonist). WAY-100635 at a dose of 0.1 mg/kg was administered sc 15 min prior to the injection of HBK-10. After 30 min the forced swim test was performed. The behaviorally ineffective dose of WAY-100635 used in the experiments was based on our previous experiments."}, "mice [3]": {"tested_on": "mice", "assay": "Tail suspension test in mice", "assay_type": "in vivo, mouse", "conditions": "30 min before test", "protocol": "as §2, with “day. […]” for “day.”\nThe experiment was carried out in mice according to the method described by Steru et al. and as previously described. […] The total time of immobility was measured during the 6-min test period. […] The experiments were video-recorded and scored using elevenmaze.com software by a trained observer blind to the treatments."}, "[4]": {"tested_on": "corticosterone-treated mice", "assay": "Forced swim test in corticosterone-induced mouse model of depression", "assay_type": "in vivo", "conditions": "for Decrease of immobility in the forced swim test in corticosterone-treated mice: chronic (3 weeks)", "protocol": "as §3\nMice were injected with corticosterone (sc, 20 mg/kg) at random times during the light phase for 21 days. The dose and route of administration of corticosterone were based on our previous study. Control mice received saline containing 0.1% dimethyl sulfoxide (DMSO) and 0.1% Tween (sc). For the next 21 days, 30 min before the corticosterone injection, mice were injected with saline, HBK-10 (0.625 or 1.25 mg/kg), or fluoxetine (15 mg/kg) (ip). Twenty-four hours after the last injection, animals were tested in the forced swim test and locomotor activity test (Figure 8)."}, "[5]": {"assay": "Spontaneous locomotor activity in mice", "assay_type": "in vivo, mouse", "conditions": "mouse, in vivo; ip, mice; read-out: ED50 (locomotor activity, sedative effect)", "protocol": "(§4) The locomotor activity of mice was measured as previously described. We used photoresistor actometers (Ugo Basile, Italy) connected to a counter for the recording of light-beam interruptions. Mice were placed individually in cages for 30 min, and the number of crossings of the light beams was recorded as the locomotor activity for 4 min."}, "mice [6]": {"tested_on": "mice", "assay": "Spontaneous locomotor activity in mice", "assay_type": "in vivo, mouse", "conditions": "for Number of Crossings ± SEM: 4 min", "protocol": "as §4"}}}
{"smiles": "CCC(CN1CCN(c2ccccc2OC)CC1)NCCCOc1c(C)cccc1C.Cl.Cl", "note": "(stereo not shown) [HBK-10, N-(3-(2,6-dimethylphenoxy)propyl)-1-(4-(2-methoxyphenyl)piperazin-1-yl)butan-2-amine dihydrochloride]", "values": [{"measurement": "Ki", "setting": "[1]", "result": 3.72, "unit": "µM"}, {"measurement": "Ki", "setting": "dopaminergic D2 receptor", "result": 0.0501, "unit": "µM"}, {"measurement": "Reduction of immobility in the forced swim test", "setting": "mice [2]; 1.25 mg/kg ip, WAY-100635 experiment, no pretreatment", "result": 35.7, "unit": "%"}, {"measurement": "Reduction of immobility in the forced swim test", "setting": "mice [2]; 1.25 mg/kg ip, pCPA experiment, no pretreatment", "result": 28.1, "unit": "%"}, {"measurement": "Reduction of immobility in the forced swim test", "setting": "mice [2]; 1st of five values, dose range 1.25–10 mg/kg ip, 30 min before test (lowest dose 1.25 mg/kg)", "result": 21.1, "unit": "%"}, {"measurement": "Reduction of immobility in the forced swim test", "setting": "mice [2]; 2nd of five values, dose range 1.25–10 mg/kg ip, dose not given", "result": 23.5, "unit": "%"}, {"measurement": "Reduction of immobility in the forced swim test", "setting": "mice [2]; 3rd of five values, dose range 1.25–10 mg/kg ip, dose not given", "result": 26.6, "unit": "%"}, {"measurement": "Reduction of immobility in the forced swim test", "setting": "mice [2]; 4th of five values, dose range 1.25–10 mg/kg ip, dose not given", "result": 44.2, "unit": "%"}, {"measurement": "Reduction of immobility in the forced swim test", "setting": "mice [2]; 5th of five values, dose range 1.25–10 mg/kg ip (highest dose 10 mg/kg)", "result": 47.2, "unit": "%"}, {"measurement": "Effect on immobility in the forced swim test, combined administration", "setting": "mice [2]; HBK-10 0.625 mg/kg combined with bupropion 2.5 mg/kg, ip", "result": "did not significantly decrease the immobility"}, {"measurement": "Decrease of immobility in the forced swim test, combined administration", "setting": "mice [2]; HBK-10 0.625 mg/kg combined with fluoxetine 10 mg/kg, ip", "result": 40.9, "unit": "%"}, {"measurement": "Decrease of immobility in the forced swim test, combined administration", "setting": "mice [2]; HBK-10 0.625 mg/kg combined with reboxetine 5 mg/kg, ip", "result": 57.7, "unit": "%"}, {"measurement": "Antidepressant-like effect in the forced swim test after pCPA pretreatment", "setting": "mice [2]; HBK-10 1.25 mg/kg ip after pCPA 200 mg/kg for three days", "result": "abolished"}, {"measurement": "Antidepressant-like effect in the forced swim test after WAY-100635 pretreatment", "setting": "mice [2]; HBK-10 1.25 mg/kg ip, WAY-100635 0.1 mg/kg sc 15 min before", "result": "abolished"}, {"measurement": "Active dose in the forced swim test, fold lower than escitalopram", "setting": "mice [2]; comparator data ref 19, 42", "result": 2, "unit": "fold"}, {"measurement": "Active dose in the forced swim test, fold lower than reboxetine", "setting": "mice [2]; comparator data ref 19, 42", "result": 8, "unit": "fold"}, {"measurement": "Activity in the forced swim test at 0.625 mg/kg", "setting": "mice [2]; naive mice, 0.625 mg/kg, single administration", "result": "inactive"}, {"measurement": "Lowest active dose in the forced swim test", "setting": "mice [2]; naive mice, single administration", "result": 1.25, "unit": "mg/kg"}, {"measurement": "Reduction of immobility in the tail suspension test", "setting": "mice [3]; 5 mg/kg ip", "result": 54.5, "unit": "%"}, {"measurement": "Reduction of immobility in the tail suspension test", "setting": "mice [3]; 10 mg/kg ip", "result": 42, "unit": "%"}, {"measurement": "Decrease of immobility in the forced swim test in corticosterone-treated mice", "setting": "[4]; 0.625 mg/kg ip", "result": 30.9, "unit": "%"}, {"measurement": "Decrease of immobility in the forced swim test in corticosterone-treated mice", "setting": "[4]; 1.25 mg/kg ip", "result": 39.5, "unit": "%"}, {"measurement": "Active dose in corticosterone model, fold lower than fluoxetine", "setting": "[4]; chronic administration", "result": 24, "unit": "fold"}, {"measurement": "Active dose in corticosterone model, fold lower than HBK-15", "setting": "[4]; comparator data ref 21", "result": 2, "unit": "fold"}, {"measurement": "ED50 at 4 min", "setting": "[5]", "result": 32.3, "unit": "mg/kg"}, {"measurement": "Number of Crossings ± SEM", "setting": "mice [6]; 10 mg/kg ip", "result": "355.1 ± 49.92"}, {"measurement": "Number of Crossings ± SEM", "setting": "mice [6]; 20 mg/kg ip", "result": "329.8 ± 34.52"}, {"measurement": "Number of Crossings ± SEM", "setting": "mice [6]; 40 mg/kg ip", "result": "155.4 ± 29.59"}, {"measurement": "Number of Crossings ± SEM", "setting": "mice [6]; 60 mg/kg ip", "result": "22.17 ± 2.03"}, {"measurement": "ED50 for sedative effect, fold higher than the lowest antidepressant-like dose", "setting": "mice [6]; mouse, in vivo", "result": "approximately 26 fold"}, {"measurement": "melting point", "result": "224 to 226", "unit": "°C"}]}
